Experimental data from patent US4216127A, “Enkephalin analogues” (American Home Products Corporation, priority 1979, dated 1980).
Square brackets hold non-standard residues; d marks the D form. Ends that are not written are not given here.

Assays:
[1] = intravenous administration; more potent than morphine; cited from earlier work
[2] = intracerebral (icv) administration; cited from earlier work
[3] = system: CF-1 mice; assay: phenylbenzoquinone induced writhing test (modified Siegmund procedure); format: in vivo
Protocol: Biol. Med. 95 729-731 (1957), in which groups of ten CF-1 mice were administered, subcutaneously, known dosages of N(Me)Tyr--D--Asn--Gly--N(Me)Phe--D--Asn--NH2, as a compound representative of the group of compounds of this invention. Five minutes later, each animal received, i.p., 0.25 ml. of a 0.02 percent phenylbenzoquinone solution. The animals were observed over a ten minute period following the phenylbenzoquinone injection for the presence of writhing. […] The dose-response analysis was then performed according to Litchfiled et al., J. Pharmacol. exp. Therap. 96 99--113(1949). The ED50 for the test compound was 1.0 mg/kg (0.62-1.6) at 30 minutes by subcutaneous administration.

Y[dM]GFP-NH2 [IV]
potency relative to morphine [1]: 5.5 times

Tyr--D--Ala--Gly--Phe--Met--NH2 [III]
analgesic activity after icv administration [2]: potent and prolonged analgesia

CC(=O)O.CN[C@@H](Cc1ccc(O)cc1)C(=O)N[C@H](CC(N)=O)C(=O)NCC(=O)N(C)[C@@H](Cc1ccccc1)C(=O)N[C@H](CC(N)=O)C(N)=O [N-Methyl-L-tyrosyl-D-asparaginyl-glycyl-N-methyl-L-phenylalanyl-D-asparaginyl amide acetate]
animals in which analgesia was observed ([3]; dose of 10 mg/kg, same procedure, for a period of forty five minutes): 100%
ED50 (analgesia, absence of writhing) ([3]; subcutaneous administration, at 30 minutes, limits (0.62-1.6), groups of ten CF-1 mice): 1.0 mg/kg

II: pentapeptide Tyr--Gly--Gly--Phe--X where X=Met, isolated by Hughes et al. (YGGFM; printed: Tyr--Gly--Gly--Phe--Met)
analgesic activity after icv administration [2]: analgesic activity only after intracerebral (icv) administration
